According to a compilation of properties of binary mixtures (doi:10.1016/j.jct.2010.07.014):

Assay: xn = mol fraction of the nth substance listed
Settings: 101 kPa

CCCC[n+]1ccccc1.F[B-](F)(F)F + CCO
speed of sound [m/s]
Settings	303.15 K	313.15 K	323.15 K
x2 = 0.072	1575.2	–	1529.8
x2 = 0.147	1555.4	1532.9	1511.8
x2 = 0.2229	–	1520.8	–
x2 = 0.3295	1514.6	1492.5	1470.4
x2 = 0.4136	1488.6	1466.5	–
x2 = 0.5006	1454.7	1433.1	1409.4
x2 = 0.5789	–	–	1374.8
x2 = 0.7074	1345.6	1329.7	1306.2
x2 = 0.8052	–	1256.1	1233.5
x2 = 0.8999	1199.4	1175.8	–
x2 = 0.948	1163.7	1135.3	1106.3

CCCC[n+]1ccccc1.F[B-](F)(F)F + CO
Settings	speed of sound [m/s]
293.15 K, x2 = 0.1574	1589.5
293.15 K, x2 = 0.2119	1580.3
293.15 K, x2 = 0.3113	1561.6
293.15 K, x2 = 0.3856	1545.2
293.15 K, x2 = 0.6109	1473.1
293.15 K, x2 = 0.7044	1424.8
293.15 K, x2 = 0.8043	1353.2
293.15 K, x2 = 0.9023	1256.7
303.15 K, x2 = 0.1058	1582.7
303.15 K, x2 = 0.2119	1558.3
303.15 K, x2 = 0.3856	1522.7
303.15 K, x2 = 0.5052	1491.6
303.15 K, x2 = 0.6109	1450.8
303.15 K, x2 = 0.8043	1330.3
303.15 K, x2 = 0.9023	1234.7
313.15 K, x2 = 0.1058	1552.6
313.15 K, x2 = 0.1574	1544.6
313.15 K, x2 = 0.2119	1535.7
313.15 K, x2 = 0.3113	1516.7
313.15 K, x2 = 0.3856	1500.1
313.15 K, x2 = 0.6109	1427.1
313.15 K, x2 = 0.7044	1378.5
313.15 K, x2 = 0.9512	1140.1
323.15 K, x2 = 0.211	1512.7
323.15 K, x2 = 0.3066	1494.7
323.15 K, x2 = 0.4111	1470.5
323.15 K, x2 = 0.5203	1440.9
323.15 K, x2 = 0.703	1363
323.15 K, x2 = 0.8081	1281.6
323.15 K, x2 = 0.9038	1172.9
